Here are results for 15 molecules from PMC9086926 (RSC Advances, 2018).

Structures are written as SMILES.

Data set [1] in a line: Absorptive permeability across traditional 21 day Caco-2 cell model. As to conditions: human. On the technique in general: Caco-2 cells form a polarised layer with tight junctions and transporters.
Data set [2] in a line: Absorptive permeability across 7 day fast model. As to conditions: human, Caco-2.
The conditions of data set [3]: cited from earlier work.

By Papp A→B is commonly meant the apparent permeability from the apical to the basolateral side of a cell layer. Low readings indicate slow passage, high ones fast passage. `CCOC(=O)C1=C(C)NC(C)=C(C(=O)OC)C1c1cccc(Cl)c1Cl` (stereo not shown) [Felodipine] registered a Papp A→B at 25 μM in data set [1] of 4.34 ± 0.63 ×10⁻⁶ cm/s.

Consider `NC(=O)N1c2ccccc2C=Cc2ccccc21` [Carbamazepine], for which the results for the Papp A→B at 25 μM in data set [1] and in data set [2] were 20.9 ± 1.93 ×10⁻⁶ cm/s and 19.5 ± 0.87 ×10⁻⁶ cm/s, respectively. Also, the “FA (human absorption fraction)” value in data set [3] is reported as 100%.

Turning to `CC(C)NCC(O)COc1cccc2ccccc12` (stereo not shown) [Propranolol], the results for the Papp A→B at 25 μM in data set [1] and in data set [2] were 10.6 ± 1.66 ×10⁻⁶ cm/s and 9.37 ± 0.03 ×10⁻⁶ cm/s, respectively.

As to `CC(=O)N1CCN(c2ccc(OCC3COC(Cn4ccnc4)(c4ccc(Cl)cc4Cl)O3)cc2)CC1` (stereo not shown) [Ketoconazole], the figures for the Papp A→B at 25 μM in data set [1] and in data set [2] were 9.61 ± 0.01 ×10⁻⁶ cm/s and 8.33 ± 0.93 ×10⁻⁶ cm/s, respectively. Also, the “FA (human absorption fraction)” value in data set [3] is on record as 76%.

Turning to `COc1ccc2[nH]c([S+]([O-])Cc3ncc(C)c(OC)c3C)nc2c1` (stereo not shown) [Omeprazole], the Papp A→B at 25 μM was 12.6 ± 2.01 ×10⁻⁶ cm/s in data set [1] and 11.4 ± 0.47 ×10⁻⁶ cm/s in data set [2]. Moreover, the “FA (human absorption fraction)” value in data set [3] is 80%.

As for `CCc1cc(C(N)=S)ccn1` [Ethionamide], the results for the Papp A→B at 25 μM in data set [1] and in data set [2] were 23.8 ± 0.94 ×10⁻⁶ cm/s and 20.4 ± 5.5 ×10⁻⁶ cm/s, respectively. Moreover, the “FA (human absorption fraction)” value in data set [3] is 80%.

As to `Nc1ccc(S(=O)(=O)Nc2ncccn2)cc1` [Sulfadiazine], the apical-to-basolateral permeability (Papp A→B) at 25 μM in data set [1] was found to be 9.76 ± 1.05 ×10⁻⁶ cm/s. The “FA (human absorption fraction)” value in data set [3] was 65%.

Consider `O=C(N[C@H](CO)[C@H](O)c1ccc([N+](=O)[O-])cc1)C(Cl)Cl` [Chloramphenicol], for which the values for the Papp A→B at 25 μM in data set [1] and in data set [2] were 8.17 ± 0.06 ×10⁻⁶ cm/s and 7.12 ± 0.04 ×10⁻⁶ cm/s, respectively.

`COCCc1ccc(OCC(O)CNC(C)C)cc1` (stereo not shown) [Metoprolol]: the apparent permeability from apical to basolateral (Papp A→B) at 25 μM stood at 12.1 ± 0.39 ×10⁻⁶ cm/s in data set [1] and 11.8 ± 0.25 ×10⁻⁶ cm/s in data set [2].

Regarding `Nc1nnc(-c2cccc(Cl)c2Cl)c(N)n1` [Lamotrigine], in data set [3], the “FA (human absorption fraction)” value is given as 98%.

With `CC(=O)CC(c1ccccc1)c1c(O)c2ccccc2oc1=O` (stereo not shown) [Warfarin sodium], the results for the Papp A→B at 25 μM in data set [1] and in data set [2] were 15.31 ± 0.002 ×10⁻⁶ cm/s and 14.44 ± 0.11 ×10⁻⁶ cm/s, respectively.

As to `COC(=O)[C@H]1[C@H]2C[C@@H]3c4[nH]c5cc(OC)ccc5c4CCN3C[C@H]2C[C@@H](OC(=O)c2cc(OC)c(OC)c(OC)c2)[C@@H]1OC` [Reserpine], the results for the apical-to-basolateral permeability (Papp A→B) at 25 μM in data set [1] and in data set [2] were 3.5 ± 0.69 ×10⁻⁶ cm/s and 3.6 ± 0.43 ×10⁻⁶ cm/s, respectively. The “FA (human absorption fraction)” value in data set [3] was 50%.

Consider `CC(C)(C)NCC(O)c1cc(O)cc(O)c1` (stereo not shown) [Terbutaline], for which the Papp A→B at 25 μM was 15.6 ± 1.28 ×10⁻⁶ cm/s in data set [1] and 16.6 ± 0.7 ×10⁻⁶ cm/s in data set [2]. In addition, in data set [3], the “FA (human absorption fraction)” value is 73%.

`CC(C(=O)O)c1cccc(C(=O)c2ccccc2)c1` (stereo not shown) [Ketoprofen]: the Papp A→B at 25 μM in data set [1] was 19.2 ± 1.93 ×10⁻⁶ cm/s; in data set [2], 15 ± 1.97 ×10⁻⁶ cm/s.

Turning to `CC(NC(C)(C)C)C(=O)c1cccc(Cl)c1` (stereo not shown) [Bupropion], the Papp A→B at 25 μM in data set [1] was determined as 16.6 ± 0.99 ×10⁻⁶ cm/s; in data set [2], 12.9 ± 0.48 ×10⁻⁶ cm/s.
